Our source for the EC50 values is patent US8563714B2, “Bridged spiro [2.4] heptane derivatives as ALX receptor and/or FPRL2 agonists” (Actelion Pharmaceuticals Ltd., priority 2009, dated 2013).

For one assay, the target named is T1, human ALX receptor (Homo sapiens, UniProt P25090).
T1 construct: expressed in transfected cells; host or cells: HEK293 (HEK293-hALXR-Gα16)
T1 sequence (P25090 1-351): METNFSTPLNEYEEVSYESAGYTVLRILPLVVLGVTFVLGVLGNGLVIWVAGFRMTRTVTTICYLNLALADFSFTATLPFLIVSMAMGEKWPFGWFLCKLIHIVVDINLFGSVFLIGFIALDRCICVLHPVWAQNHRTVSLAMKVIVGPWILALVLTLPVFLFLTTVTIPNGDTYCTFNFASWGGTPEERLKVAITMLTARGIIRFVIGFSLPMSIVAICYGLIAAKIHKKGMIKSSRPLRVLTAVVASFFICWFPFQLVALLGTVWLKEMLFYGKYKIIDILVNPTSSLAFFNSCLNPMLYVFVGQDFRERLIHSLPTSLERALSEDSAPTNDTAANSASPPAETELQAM
Nature of the assay: Intracellular calcium measurements (FLIPR), agonistic activity in HEK293-hALXR-Gα16 cells. It is filed as cell-based. Conditions: Fluo-4 calcium FLIPR, normalized to WKYMVm 10 nM. In outline: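 HEK293 cells expressing hALXR and Gα16 were loaded with 1 μM Fluo-4 AM and 20 mM HEPES for 60 min at 37°C, then exposed to serially diluted compound. FLIPR fluorescence was read at ex 488/em 540 nm. Baseline-subtracted peak responses were normalized to 10 nM WKYMVm.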
(In general: Calcium flux is commonly read through the fluorescence of an indicator in the cells.)

The target of another assay is T2, human FPRL2 (Homo sapiens, UniProt P25089).
T2 construct: expressed in transfected cells; host or cells: HEK293 (HEK293-hFPRL2-Gα16)
T2 sequence (P25089 1-353): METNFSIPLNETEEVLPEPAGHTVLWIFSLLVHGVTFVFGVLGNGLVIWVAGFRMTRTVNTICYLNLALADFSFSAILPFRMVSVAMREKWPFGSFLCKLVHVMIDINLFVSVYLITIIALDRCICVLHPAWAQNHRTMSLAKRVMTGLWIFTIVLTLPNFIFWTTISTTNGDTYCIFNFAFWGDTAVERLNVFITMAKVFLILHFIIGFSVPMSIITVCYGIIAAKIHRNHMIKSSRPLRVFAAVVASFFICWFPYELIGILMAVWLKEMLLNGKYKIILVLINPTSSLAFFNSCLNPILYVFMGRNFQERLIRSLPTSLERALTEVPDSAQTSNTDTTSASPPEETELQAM
Nature of the assay: Intracellular calcium measurements (FLIPR), agonistic activity in HEK293-hFPRL2-Gα16 cells. It is filed as cell-based. Conditions: Fluo-4 calcium FLIPR, normalized to GLY14-Humanin 100 nM. In outline:
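Peak values after baseline subtraction are expressed relative to 100 nM Gly14-Humanin; compounds diluted in assay buffer from 10 mM DMSO stocks.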

`O=C(NCCCCN1CCCC1)[C@H]1[C@H](C(=O)Nc2cccc3nonc23)[C@@H]2C=C[C@H]1C21CC1` (racemic) [Example 151, (5R*)—N^5-(Benzo[2,1,3]oxadiazol-4-yl)-(6R*)—N^6-(4-pyrrolidin-1-yl-butyl)-(4S*,7R*)-[4,7-ethenylene-spiro[2.4]heptane]-5,6-dicarboxamide]: the EC50 at human ALX receptor was 9120 nM; on human FPRL2, 714 nM.

As to `CC(C)(C)c1csc(NC(=O)[C@H]2[C@H](C(=O)NCCCCN3CCCC3)[C@H]3C=C[C@@H]2C32CC2)n1` (racemic) [Example 152, (5R*)—N^5-(4-tert-Butyl-thiazol-2-yl)-(6R*)—N^6-(4-pyrrolidin-1-yl-butyl)-(4S*,7R*)-[4,7-ethenylene-spiro[2.4]heptane]-5,6-dicarboxamide], the values for the EC50 at human ALX receptor and at human FPRL2 were 9630 nM and 150 nM, respectively.

Turning to `O=C(NCCCCN1CCCC1)[C@H]1[C@H](C(=O)Nc2nc(-c3ccccc3)ns2)[C@@H]2C=C[C@H]1C21CC1` (racemic) [Example 153, (5R*)—N^5-(3-Phenyl-[1,2,4]thiadiazol-5-yl)-(6R*)—N^6-(4-pyrrolidin-1-yl-butyl)-(4S*,7R*)-[4,7-ethenylene-spiro[2.4]heptane]-5,6-dicarboxamide], the figures for the EC50 at human ALX receptor and on human FPRL2 were 9890 nM and 91 nM, respectively.

Turning to `O=C(NCCCCN1CCCC1)[C@H]1[C@H](C(=O)Nc2nc3ccc(Cl)cc3s2)[C@@H]2C=C[C@H]1C21CC1` (racemic) [Example 154, (5R*)—N^5-(6-Chloro-benzothiazol-2-yl)-(6R*)—N^6-(4-pyrrolidin-1-yl-butyl)-(4S*,7R*)-[4,7-ethenylene-spiro[2.4]heptane]-5,6-dicarboxamide], the EC50 on human ALX receptor was found to be 10000 nM; on human FPRL2 it was 214 nM.

As for `Cc1cc2ccccc2n1CCCNC(=O)[C@H]1[C@H](C(=O)NCCCCN2CCCC2)[C@H]2C=C[C@@H]1C21CC1` (racemic) [Example 155, (5R*)—N^5-(3-(2-Methyl-1H-indol-1-yl)-propyl)-(6R*)—N^6-(4-pyrrolidin-1-yl-butyl)-(4S*,7R*)-[4,7-ethenylene-spiro[2.4]heptane]-5,6-dicarboxamide], the EC50 at human ALX receptor was greater than 25000 nM; at human FPRL2, 91 nM.

For the compound `Cn1c(CCNC(=O)[C@H]2[C@H](C(=O)NCCCCN3CCCC3)[C@H]3C=C[C@@H]2C32CC2)nc2ccccc21` (racemic) [Example 156, (5R*)—N^5-(2-(1-Methyl-1H-benzoimidazol-2-yl)-ethyl)-(6R*)—N^6-(4-pyrrolidin-1-yl-butyl)-(4S*,7R*)-[4,7-ethenylene-spiro[2.4]heptane]-5,6-dicarboxamide], the EC50 at human ALX receptor is greater than 25000 nM; at human FPRL2, 623 nM.

With `O=C(NCCCCN1CCCC1)[C@H]1[C@H](C(=O)NCCn2ccc3ccccc32)[C@@H]2C=C[C@H]1C21CC1` (racemic) [Example 157, (5R*)—N^5-(2-(1H-Indol-1-yl)-ethyl)-(6R*)—N^6-(4-pyrrolidin-1-yl-butyl)-(4S*,7R*)-[4,7-ethenylene-spiro[2.4]heptane]-5,6-dicarboxamide], the results for the EC50 on human ALX receptor and at human FPRL2 were greater than 25000 nM and 136 nM, respectively.

`COc1ccccc1CCNC(=O)[C@H]1[C@H](C(=O)NCCCCN2CCCC2)[C@H]2C=C[C@@H]1C21CC1` (racemic) [Example 158, (5R*)—N^5-(2-(2-Methoxy-phenyl)-ethyl)-(6R*)—N^6-(4-pyrrolidin-1-yl-butyl)-(4S*,7R*)-[4,7-ethenylene-spiro[2.4]heptane]-5,6-dicarboxamide]: the EC50 at human ALX receptor is greater than 25000 nM; at human FPRL2, 204 nM.

Regarding `O=C(CCCN1CCCC1=O)NC[C@H]1[C@H](C(=O)Nc2ccc(Br)cc2)[C@@H]2C=C[C@H]1C21CC1` (racemic) [Example 161, (5R*)—N^5-(4-Bromo-phenyl)-(6R*)-6-[(4-(2-oxo-pyrrolidin-1-yl)-butyrylamino)-methyl]-(4S*,7R*)-[4,7-ethenylene-spiro[2.4]heptane]-5-carboxamide], the figures for the EC50 at human ALX receptor and on human FPRL2 were 47 nM and 7920 nM, respectively.

What is called EC50 is the concentration needed to bring the measured effect to its halfway point.
